# Measurements reported in patent publication US8546588B2, “Substituted hydroxamic acids and uses thereof” (Millennium Pharmaceuticals, Inc., priority 2010, dated 2013).
# Target: T1, purified human HDAC6 (Homo sapiens, UniProt Q9UBN7)
# T1 construct: purchased BPS Bioscience 5006
# T1 sequence (Q9UBN7 1-1215): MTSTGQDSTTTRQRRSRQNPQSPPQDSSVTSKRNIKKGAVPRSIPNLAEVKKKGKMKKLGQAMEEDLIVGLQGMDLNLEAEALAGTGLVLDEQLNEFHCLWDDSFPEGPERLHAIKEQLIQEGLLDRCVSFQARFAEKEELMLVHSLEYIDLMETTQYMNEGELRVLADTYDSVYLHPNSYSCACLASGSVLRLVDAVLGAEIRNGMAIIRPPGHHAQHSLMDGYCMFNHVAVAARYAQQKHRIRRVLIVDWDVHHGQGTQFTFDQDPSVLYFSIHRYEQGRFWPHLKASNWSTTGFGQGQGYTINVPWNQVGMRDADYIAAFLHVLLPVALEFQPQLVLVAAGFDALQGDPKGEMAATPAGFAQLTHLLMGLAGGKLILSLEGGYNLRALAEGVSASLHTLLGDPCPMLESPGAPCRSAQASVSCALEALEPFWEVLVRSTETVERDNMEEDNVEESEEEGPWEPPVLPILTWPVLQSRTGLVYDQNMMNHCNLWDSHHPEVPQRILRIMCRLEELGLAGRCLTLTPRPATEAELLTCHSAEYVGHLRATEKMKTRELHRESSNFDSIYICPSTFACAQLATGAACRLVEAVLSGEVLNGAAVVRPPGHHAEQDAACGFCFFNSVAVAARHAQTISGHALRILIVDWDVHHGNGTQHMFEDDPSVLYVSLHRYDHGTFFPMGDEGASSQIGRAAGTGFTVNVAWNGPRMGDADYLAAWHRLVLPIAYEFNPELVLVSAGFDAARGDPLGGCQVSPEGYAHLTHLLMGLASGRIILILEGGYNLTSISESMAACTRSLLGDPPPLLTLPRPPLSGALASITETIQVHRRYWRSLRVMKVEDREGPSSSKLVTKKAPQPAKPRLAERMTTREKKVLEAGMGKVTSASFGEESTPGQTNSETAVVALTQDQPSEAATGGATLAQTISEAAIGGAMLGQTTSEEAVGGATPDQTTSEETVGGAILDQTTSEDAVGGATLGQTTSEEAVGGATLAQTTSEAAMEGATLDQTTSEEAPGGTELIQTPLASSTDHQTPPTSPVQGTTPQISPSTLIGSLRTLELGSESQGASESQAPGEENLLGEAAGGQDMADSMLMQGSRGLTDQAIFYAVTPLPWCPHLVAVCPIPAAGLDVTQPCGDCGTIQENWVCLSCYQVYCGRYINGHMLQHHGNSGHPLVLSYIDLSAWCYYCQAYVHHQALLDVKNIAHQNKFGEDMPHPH
# Assay: HDAC6 Enzyme Assay
# Format: biochemical
# Conditions: substrate Ac-Arg-Gly-Lys(Ac)-AMC peptide, 1 hour at 30° C.
# Procedure: To measure the inhibition of HDAC6 activity, purified human HDAC6 (BPS Bioscience; Cat. No. 5006) is incubated with substrate Ac-Arg-Gly-Lys(Ac)-AMC peptide (Bachem Biosciences; Cat. No. I-1925) for 1 hour at 30° C. in the presence of test compounds or vehicle DMSO control. The reaction is stopped with the HDAC inhibitor trichostatin A (Sigma; Cat. No. T8552) and the amount of Arg-Gly-Lys-AMC generated is quantitated by digestion with trypsin (Sigma; Cat. No. T1426) and subsequent measurement of the amount of AMC released using a fluorescent plate reader (Pherastar; BMG Technologies) set at Ex 340 nm and Em 460 nm. Concentration response curves are generated by calculating the fluorescence increase in test compound-treated samples relative to DMSO-treated controls, and enzyme inhibition (IC50) values are determined from those curves.
row,Structure (SMILES),IC50
1,"Cc1nc(-c2ccccn2)sc1C(=O)N[C@H](C)c1cc(C(=O)NO)on1 [Compound I-163, N-hydroxy-3-((1R)-1-{[(4-methyl-2-pyridin-2-yl-1,3-thiazol-5-yl)carbonyl]amino}ethyl)isoxazole-5-carboxamide]",> 500 nM
2,"CC(NS(=O)(=O)c1cn(C)cn1)c1ccc(C(=O)NO)s1 (stereo not shown) [Compound I-33, N-hydroxy-5-(1-{[(1-methyl-1H-imidazol-4-yl)sulfonyl]amino}ethyl)thiophene-2-carboxamide]",100 to 500 nM
3,"COc1ccc(C(=O)N[C@H](C)c2cc(C(=O)NO)on2)cc1 [Compound I-164, N-hydroxy-3-{(1R)-1-[(4-methoxybenzoyl)amino]ethyl}isoxazole-5-carboxamide]",> 500 nM
4,"Cc1noc(-c2ccccc2)c1NC(=O)NC(C)c1ccc(C(=O)NO)s1 (stereo not shown) [Compound I-41, N-hydroxy-5-[1-({[(3-methyl-5-phenylisoxazol-4-yl)amino]carbonyl}amino)ethyl]thiophene-2-carboxamide]",100 to 500 nM
5,"COc1ccc(C(=O)N[C@@H](C)c2ncc(C(=O)NO)s2)cc1 [Compound I-175, N-hydroxy-2-{(1S)-1-[(4-methoxybenzoyl)amino]ethyl}-1,3-thiazole-5-carboxamide]",100 to 500 nM
6,"CC(NC(=O)NC(C)(C)C)c1ccc(C(=O)NO)s1 (stereo not shown) [Compound I-34, 5-(1-{[(tert-butylamino)carbonyl]amino}ethyl)-N-hydroxythiophene-2-carboxamide]",100 to 500 nM
7,"CC(NC(=O)NC1CCCCC1)c1ccc(C(=O)NO)s1 (stereo not shown) [Compound I-24, 5-(1-{[(cyclohexylamino)carbonyl]amino}ethyl)-N-hydroxythiophene-2-carboxamide]",100 to 500 nM
8,"Cc1ccccc1S(=O)(=O)NC(C)c1ccc(C(=O)NO)s1 (stereo not shown) [Compound I-35, N-hydroxy-5-(1-{[(2-methylphenyl)sulfonyl]amino}ethyl)thiophene-2-carboxamide]",100 to 500 nM
9,"C[C@@H](NC(=O)c1ccc(-c2ccccc2)cc1)c1cc(C(=O)NO)on1 [Compound I-158, 3-{(1R)-1-[(biphenyl-4-ylcarbonyl)amino]ethyl}-N-hydroxyisoxazole-5-carboxamide]",> 500 nM
10,"CC(NS(=O)(=O)c1ccccc1F)c1ccc(C(=O)NO)s1 (stereo not shown) [Compound I-47, 5-(1-{[(2-fluorophenyl)sulfonyl]amino}ethyl)-N-hydroxythiophene-2-carboxamide]",100 to 500 nM
11,"CC(NC(=O)NC(C)c1ccc(C(=O)NO)s1)c1ccccc1 (stereo not shown) [Compound I-28, N-hydroxy-5-[1-({[(1-phenylethyl)amino]carbonyl}amino)ethyl]thiophene-2-carboxamide]",100 to 500 nM
12,"C[C@@H](NC(=O)c1cccn1C)c1ncc(C(=O)NO)s1 [Compound I-174, N-hydroxy-2-((1R)-1-{[(1-methyl-1H-pyrrol-2-yl)carbonyl]amino}ethyl)-1,3-thiazole-5-carboxamide]",100 to 500 nM
13,"C[C@@H](NC(=O)C12CC3CC(CC(C3)C1)C2)c1ccc(C(=O)NO)s1 [Compound I-11, 5-{(1R)-1-[(1-adamantylcarbonyl)amino]ethyl}-N-hydroxythiophene-2-carboxamide]",> 500 nM
14,"CC(NS(=O)(=O)c1ccccc1)c1ccc(C(=O)NO)s1 (stereo not shown) [Compound I-48, N-hydroxy-5-{1-[(phenylsulfonyl)amino]ethyl}thiophene-2-carboxamide]",100 to 500 nM
15,"COc1ccc(C(=O)N[C@H](C)c2ncc(C(=O)NO)s2)cc1 [Compound I-169, N-hydroxy-2-{(1R)-1-[(4-methoxybenzoyl)amino]ethyl}-1,3-thiazole-5-carboxamide]",100 to 500 nM

# Other lines, results leading:
row,IC50,Structure (SMILES)
1,100 to 500 nM,"Cc1cccc(C)c1NC(=O)NC(C)c1ccc(C(=O)NO)s1 (stereo not shown) [Compound I-32, 5-[1-({[(2,6-dimethylphenyl)amino]carbonyl}amino)ethyl]-N-hydroxythiophene-2-carboxamide]"
2,< 100 nM,"Cc1ccccc1NC(=O)NC(C)c1ccc(C(=O)NO)s1 (stereo not shown) [Compound I-40, N-hydroxy-5-[1-({[(2-methylphenyl)amino]carbonyl}amino)ethyl]thiophene-2-carboxamide]"
3,< 100 nM,"C[C@@H](NC(=O)c1cc2ccccc2s1)c1ncc(C(=O)NO)s1 [Compound I-178, 2-{(1R)-1-[(1-benzothien-2-ylcarbonyl)amino]ethyl}-N-hydroxy-1,3-thiazole-5-carboxamide]"
4,< 100 nM,"Cc1c(C(=O)N[C@H](C)c2ccc(C(=O)NO)s2)oc2ccccc12 [Compound I-15, N-((1R)-1-{5-[(hydroxyamino)carbonyl]-2-thienyl}ethyl)-3-methyl-1-benzofuran-2-carboxamide]"
5,100 to 500 nM,"C[C@@H](NC(=O)NC(C)(C)C)c1ccc(C(=O)NO)s1 [Compound I-8, 5-((1R)-1-{[(tert-butylamino)carbonyl]amino}ethyl)-N-hydroxythiophene-2-carboxamide]"
6,100 to 500 nM,"C[C@H](NC(=O)c1ccc(S(C)(=O)=O)cc1)c1ncc(C(=O)NO)s1 [Compound I-177, N-hydroxy-2-((1S)-1-{[4-(methylsulfonyl)benzoyl]amino}ethyl)-1,3-thiazole-5-carboxamide]"
7,< 100 nM,"CC(NC(=O)Nc1cc(C(F)(F)F)ccc1F)c1ccc(C(=O)NO)s1 (stereo not shown) [Compound I-7, 5-{1-[({[2-fluoro-5-(trifluoromethyl)phenyl]amino}carbonyl)amino]ethyl}-N-hydroxythiophene-2-carboxamide]"
8,< 100 nM,"CC(NC(=O)Nc1ccccc1Oc1ccccc1)c1ccc(C(=O)NO)s1 (stereo not shown) [Compound I-44, N-hydroxy-5-[1-({[(2-phenoxyphenyl)amino]carbonyl}amino)ethyl]thiophene-2-carboxamide]"
9,< 100 nM,"C[C@@H](NC(=O)c1cc2ccccc2o1)c1ncc(C(=O)NO)s1 [Compound I-165, 2-{(1R)-1-[(1-benzofuran-2-ylcarbonyl)amino]ethyl}-N-hydroxy-1,3-thiazole-5-carboxamide]"
10,< 100 nM,"C[C@@H](NC(=O)c1cc2ccccc2s1)c1ccc(C(=O)NO)s1 [Compound I-16, N-((1R)-1-{5-[(hydroxyamino)carbonyl]-2-thienyl}ethyl)-1-benzothiophene-2-carboxamide]"
11,< 100 nM,"CC(NC(=O)Nc1ccc(F)cc1)c1ccc(C(=O)NO)s1 (stereo not shown) [Compound I-2, 5-[1-({[(4-fluorophenyl)amino]carbonyl}amino)ethyl]-N-hydroxythiophene-2-carboxamide]"
12,< 100 nM,"Cc1nc(-c2ccccn2)sc1C(=O)N[C@@H](C)c1ncc(C(=O)NO)s1 [Compound I-168, N-((1S)-1-{5-[(hydroxyamino)carbonyl]-1,3-thiazol-2-yl}ethyl)-4-methyl-2-pyridin-2-yl-1,3-thiazole-5-carboxamide]"
13,< 100 nM,"C[C@H](NC(=O)c1ccc(-c2ccccc2)cc1)c1ncc(C(=O)NO)s1 [Compound I-161, 2-{(1S)-1-[(biphenyl-4-ylcarbonyl)amino]ethyl}-N-hydroxy-1,3-thiazole-5-carboxamide]"
14,< 100 nM,"C[C@H](NC(=O)c1cc2ccccc2s1)c1ccc(C(=O)NO)s1 [Compound I-21, N-((1S)-1-{5-[(hydroxyamino)carbonyl]-2-thienyl}ethyl)-1-benzothiophene-2-carboxamide]"
15,< 100 nM,"Cc1ccc(NC(=O)NC(C)c2ccc(C(=O)NO)s2)cc1C (stereo not shown) [Compound I-38, 5-[1-({[(3,4-dimethylphenyl)amino]carbonyl}amino)ethyl]-N-hydroxythiophene-2-carboxamide]"
16,< 100 nM,"Cc1nc(-c2ccccn2)sc1C(=O)N[C@H](C)c1ncc(C(=O)NO)s1 [Compound I-167, N-((1R)-1-{5-[(hydroxyamino)carbonyl]-1,3-thiazol-2-yl}ethyl)-4-methyl-2-pyridin-2-yl-1,3-thiazole-5-carboxamide]"
